Source: patent US8802597B2, “Herbicidal pyrimidines” (E I du Pont de Nemours and Company, priority 2003, dated 2014)

Assays:
Format in all cases: in vivo
[1] = tested on: rice (Oryza sativa); assay: Test B flooded paddy test; conditions: Flood, 1000 g ai/ha; scale 0 to 100
Procedure, shortened: (§1)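 Rice, umbrella sedge, duck salad and barnyardgrass grown to 2-leaf stage under flooded paddy conditions and treated with formulated test chemicals. Kept in greenhouse 13–15 days, then visually rated against untreated controls on a 0–100 scale (0 no effect, 100 complete control).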

[2] = tested on: umbrella sedge (Cyperus difformis); assay: Test B flooded paddy test; conditions: Flood, 1000 g ai/ha; scale 0 to 100
Procedure, shortened: as §1

[3] = tested on: barnyardgrass (Echinochloa crus-galli); assay: Test B flooded paddy test; conditions: Flood, 1000 g ai/ha; scale 0 (no effect) to 100 (complete control)
Procedure, shortened: as §1

[4] = tested on: duck salad (Heteranthera limosa); assay: Test B flooded paddy test; conditions: Flood, 1000 g ai/ha; scale 0 to 100
Procedure, shortened: as §1

[5] = tested on: wild oat (Avena fatua); assay: Test B postemergence
Procedure, shortened: (§2)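 Pre: compound (non-phytotoxic solvent + surfactant) applied to freshly planted seeds. Post: same formulation sprayed on 2–18 cm plants, 1- to 4-leaf. Readout: visual control rating 0–100 vs controls, 13–15 d, greenhouse.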

[6] = tested on: blackgrass (Alopecurus myosuroides); assay: Test B postemergence
Procedure, shortened: as §2

[7] = tested on: crabgrass (Digitaria sanguinalis); assay: Test B pre/postemergence
Procedure, shortened: as §2

[8] = tested on: corn (Zea mays); assay: Test B pre/postemergence
Procedure, shortened: as §2

[9] = tested on: morningglory (Ipomoea coccinea); assay: Test B pre/postemergence
Procedure, shortened: as §2

[10] = tested on: cocklebur (Xanthium strumarium); assay: Test B pre/postemergence
Procedure, shortened: as §2

[11] = tested on: pigweed (Amaranthus retroflexus); assay: Test B pre/postemergence
Procedure, shortened: as §2

[12] = tested on: barnyardgrass (Echinochloa crus-galli); assay: Test B pre/postemergence
Procedure, shortened: as §2

[13] = tested on: giant foxtail (Setaria faberii); assay: Test B pre/postemergence
Procedure, shortened: as §2

[14] = tested on: lambsquarters (Chenopodium album); assay: Test B pre/postemergence
Procedure, shortened: as §2

[15] = tested on: Surinam grass (Brachiaria decumbens); assay: Test B pre/postemergence
Procedure, shortened: as §2

[16] = tested on: velvetleaf (Abutilon theophrasti); assay: Test B pre/postemergence
Procedure, shortened: as §2

[17] = tested on: wheat (Triticum aestivum); assay: Test B pre/postemergence
Procedure, shortened: as §2

[18] = 125 g ai/ha, scale 0 to 100 (0 no effect, 100 complete control)
[19] = Postemergence, 125 g ai/ha, scale 0 to 100 (0 no effect, 100 complete control)
[20] = Postemergence, 500 g ai/ha, scale 0 to 100
[21] = Preemergence, 125 g ai/ha, scale 0 to 100 (0 no effect, 100 complete control)
[22] = Preemergence, 500 g ai/ha, scale 0 to 100 (0 no effect, 100 complete control)

With `COC(=O)c1nc(C2CC2)nc(N=CN(C)C)c1Br` [Compound 19] the “Plant response rating, Rice” value [1] was 60, the “Plant response rating, Sedge, Umbrella” value [2] was 70 and the “Plant response rating, Barnyardgrass” value [3] was 80. For the same compound, the “Plant response rating, Ducksalad” value [4] was 80, the “Oat, Wild plant response rating” value [5, 18] was 40 and the “Plant response rating, Oat, Wild” value ([5]; 500 g ai/ha, scale 0 to 100) was 70. The “Blackgrass plant response rating” value [6, 18] was 60, the “Plant response rating, Blackgrass” value ([6]; 500 g ai/ha, scale 0 to 100) was 80 and the “Crabgrass plant response rating” value [7, 19] was 40. The “Plant response rating, Crabgrass” value [7, 20] was 80, the “Plant response rating, Crabgrass” value [7, 21] was 80 and the “Crabgrass plant response rating” value [7, 22] was 90. For the same compound, the “Corn plant response rating” value [8, 19] was 30, the “Plant response rating, Corn” value [8, 20] was 70 and the “Plant response rating, Corn” value [8, 21] was 70. The “Corn plant response rating” value [8, 22] was 90, the “Morningglory plant response rating” value [9, 19] was 100 and the “Plant response rating, Morningglory” value [9, 20] was 100. For the same compound, the “Plant response rating, Morningglory” value [9, 21] was 90, the “Morningglory plant response rating” value [9, 22] was 100 and the “Cocklebur plant response rating” value [10, 19] was 90. The “Plant response rating, Cocklebur” value [10, 20] was 100, the “Plant response rating, Cocklebur” value [10, 21] was 90 and the “Cocklebur plant response rating” value [10, 22] was 100. The “Pigweed plant response rating” value [11, 19] was 90, the “Plant response rating, Pigweed” value [11, 20] was 100 and the “Plant response rating, Pigweed” value [11, 21] was 90. The “Pigweed plant response rating” value [11, 22] was 100, the “Barnyardgrass plant response rating” value [12, 19] was 80 and the “Plant response rating, Barnyardgrass” value [12, 20] was 90. For the same compound, the “Plant response rating, Barnyardgrass” value [12, 21] was 40, the “Barnyardgrass plant response rating” value [12, 22] was 90 and the “Foxtail, Giant plant response rating” value [13, 19] was 20. The “Plant response rating, Foxtail, Giant” value [13, 20] was 80, the “Plant response rating, Foxtail, Giant” value [13, 21] was 20 and the “Foxtail, Giant plant response rating” value [13, 22] was 80. The “Lambsquarters plant response rating” value [14, 19] was 100, the “Plant response rating, Lambsquarters” value [14, 20] was 100 and the “Plant response rating, Lambsquarters” value [14, 21] was 100. For the same compound, the “Lambsquarters plant response rating” value [14, 22] was 100, the “Surinam Grass plant response rating” value [15, 19] was 40 and the “Plant response rating, Surinam Grass” value [15, 20] was 90. The “Plant response rating, Surinam Grass” value [15, 21] was 60, the “Surinam Grass plant response rating” value [15, 22] was 90 and the “Velvetleaf plant response rating” value [16, 19] was 70. For the same compound, the “Plant response rating, Velvetleaf” value [16, 20] was 100, the “Plant response rating, Velvetleaf” value [16, 21] was 90 and the “Velvetleaf plant response rating” value [16, 22] was 100. The “Wheat plant response rating” value [17, 19] was 20, the “Plant response rating, Wheat” value [17, 20] was 60 and the “Plant response rating, Wheat” value [17, 21] was 50. For the same compound, the “Wheat plant response rating” value [17, 22] was 60.
